Reference: article PMC7703563 (Proceedings of the National Academy of Sciences of the …, 2020)

Columns and labels:
[1] = molecular target: T1, MANEA-Δ97 (human endo-α-1,2-mannosidase catalytic domain, GH99) (Homo sapiens, UniProt Q5SRI9); assay: isothermal titration calorimetry; assay type: binding
T1 sequence (Q5SRI9 98-462): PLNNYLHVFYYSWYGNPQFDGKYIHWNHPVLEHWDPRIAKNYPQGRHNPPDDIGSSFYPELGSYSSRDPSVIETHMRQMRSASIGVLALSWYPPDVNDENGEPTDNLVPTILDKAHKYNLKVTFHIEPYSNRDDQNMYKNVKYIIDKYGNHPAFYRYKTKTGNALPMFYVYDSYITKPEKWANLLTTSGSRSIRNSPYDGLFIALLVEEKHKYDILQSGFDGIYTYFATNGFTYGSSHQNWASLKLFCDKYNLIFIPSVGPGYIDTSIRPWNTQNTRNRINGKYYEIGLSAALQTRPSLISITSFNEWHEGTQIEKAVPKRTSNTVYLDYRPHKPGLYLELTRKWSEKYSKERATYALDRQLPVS

[2] = molecular target: T1, MANEA-Δ97 (human endo-α-1,2-mannosidase catalytic domain, GH99); assay: X-ray crystal structure; assay type: binding; details: ternary complex with GlcIFG; +1/+2 subsites
[3] = substrate: CO[C@H]1O[C@H](CO)[C@@H](O)[C@H](O)[C@@H]1O[C@H]1O[C@H](CO)[C@@H](O)[C@H](O)[C@@H]1O[C@H]1O[C@H](CO)[C@@H](O)[C@H](O[C@H]2O[C@H](CO)[C@@H](O)[C@H](O)[C@H]2O)[C@@H]1O; assay: purified protein; details: α-mannosidase-coupled release of mannose

OC[C@H]1NC[C@@H](O)[C@@H](O[C@H]2O[C@H](CO)[C@@H](O)[C@H](O)[C@H]2O)[C@@H]1O [GlcDMJ]
Kd [1]: 1020 nM

OC[C@H]1O[C@H](O[C@@H]2C(O)O[C@H](CO)[C@@H](O)[C@@H]2O)[C@@H](O)[C@@H](O)[C@@H]1O (stereo partly drawn) [α-1,2-mannobiose]
X-ray crystal structure [2]: a ternary complex with GlcIFG and α-1,2-mannobiose

B1: MANEA-Δ97 (human endo-α-1,2-mannosidase catalytic domain, GH99) (Homo sapiens) (protein)
chain: PLNNYLHVFYYSWYGNPQFDGKYIHWNHPVLEHWDPRIAKNYPQGRHNPPDDIGSSFYPELGSYSSRDPSVIETHMRQMRSASIGVLALSWYPPDVNDENGEPTDNLVPTILDKAHKYNLKVTFHIEPYSNRDDQNMYKNVKYIIDKYGNHPAFYRYKTKTGNALPMFYVYDSYITKPEKWANLLTTSGSRSIRNSPYDGLFIALLVEEKHKYDILQSGFDGIYTYFATNGFTYGSSHQNWASLKLFCDKYNLIFIPSVGPGYIDTSIRPWNTQNTRNRINGKYYEIGLSAALQTRPSLISITSFNEWHEGTQIEKAVPKRTSNTVYLDYRPHKPGLYLELTRKWSEKYSKERATYALDRQLPVS
Km [3]: 426 ± 33 µM
kcat [3]: 0.462 ± 0.0167 s⁻¹
